Like-named read-outs stand apart in the source and are kept apart here.
Assays:
Experiment in all cases: Glasshouse assay for herbicidal activity (pre- and post-emergence), percentage phytotoxicity
Assay type in all cases: in vivo
[1] = tested on: Alopecurus myosuroides (ALOMY); settings: Alopecurus myosuroides, 250 g/ha, visual assessment (100%=total damage, 0%=no damage)
Procedure, shortened: (§1)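 Seeds were sown in standard soil in pots and grown one day (pre-emergence) or about 12 days (post-emergence) before herbicide application. Plants were kept at 24/18 °C (warm-climate) or 20/16 °C (cool-climate) day/night, 16 h light, 65% humidity, watered twice daily, and damage was scored visually at 15 DAA (POST) or 20 DAA (PRE).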

Avena fatua (AVEFA) = settings: Avena fatua, 250 g/ha, visual assessment (100%=total damage, 0%=no damage)
Procedure, shortened: as §1

[2] = tested on: Echinochloa crus-galli (ECHCG); settings: Echinochloa crus-galli, 250 g/ha, visual assessment (100%=total damage, 0%=no damage)
Procedure, shortened: as §1

Lolium perenne (LOLPE) = settings: Lolium perenne, 250 g/ha, visual assessment (100%=total damage, 0%=no damage)
Procedure, shortened: as §1

[3] = post-emergence, 360 h, post-emergence, 15 DAA, read-out: Post-emergence herbicidal activity (percentage phytotoxicity) ALOMY POST
[4] = pre-emergence, 480 h, pre-emergence, 20 DAA, read-out: Pre-emergence herbicidal activity (percentage phytotoxicity) ALOMY PRE
[5] = post-emergence, 360 h, post-emergence, 15 DAA, read-out: Post-emergence herbicidal activity (percentage phytotoxicity) AVEFA POST
[6] = pre-emergence, 480 h, pre-emergence, 20 DAA, read-out: Pre-emergence herbicidal activity (percentage phytotoxicity) AVEFA PRE
[7] = post-emergence, 360 h, post-emergence, 15 DAA, read-out: Post-emergence herbicidal activity (percentage phytotoxicity) ECHCG POST
[8] = pre-emergence, 480 h, pre-emergence, 20 DAA, read-out: Pre-emergence herbicidal activity (percentage phytotoxicity) ECHCG PRE
[9] = post-emergence, 360 h, post-emergence, 15 DAA, read-out: Post-emergence herbicidal activity (percentage phytotoxicity) LOLPE POST
[10] = pre-emergence, 480 h, pre-emergence, 20 DAA, read-out: Pre-emergence herbicidal activity (percentage phytotoxicity) LOLPE PRE

Structure (SMILES) | pest or weed control at 250 g/ha [1, 3] [%] | pest or weed control at 250 g/ha [1, 4] [%] | pest or weed control at 250 g/ha (Avena fatua (AVEFA); [5]) [%] | pest or weed control at 250 g/ha (Avena fatua (AVEFA); [6]) [%] | pest or weed control at 250 g/ha [2, 7] [%] | pest or weed control at 250 g/ha [2, 8] [%] | pest or weed control at 250 g/ha (Lolium perenne (LOLPE); [9]) [%] | pest or weed control at 250 g/ha (Lolium perenne (LOLPE); [10]) [%]
Cc1cc(-c2ccc(C#N)cn2)cc(C)c1C1C(=O)CC(CC(=O)NC(C)(C)C)C1=O (stereo not shown) [Compound B75] | 100 | 100 | 100 | 90 | 100 | 100 | 100 | 90
Cc1cc(C)c(C2C(=O)CC(CC(=O)NCC(CF)CF)C2=O)c(C)c1 (stereo not shown) [Compound B76] | 80 | 90 | 80 | 70 | 80 | 90 | 80 | 90
Cc1cc(-c2ncc(F)cc2F)cc(C)c1C1C(=O)CC(CC(=O)NCC2CC2(Cl)Cl)C1=O (stereo not shown) [Compound B77] | 100 | 90 | 100 | 90 | 100 | 100 | 100 | 100
Cc1cc(C)c(C2C(=O)CC(CC(=O)NC3(C4CC4)CC3)C2=O)c(C)c1 (stereo not shown) [Compound B78] | 80 | 80 | 80 | 40 | 90 | 90 | 80 | 90
CCCN(CC1CC1)C(=O)CC1CC(=O)C(c2c(C)cc(C)cc2C)C1=O (stereo not shown) [Compound B79] | 60 | 60 | 10 | 0 | 60 | 80 | 80 | 80
Cc1cc(C)c(C2C(=O)CC(CC(=O)N(C)C(C)(C)C)C2=O)c(C)c1 (stereo not shown) [Compound B80] | 80 | 90 | 60 | 0 | 90 | 90 | 90 | 100
Cc1cc(C)c(C2C(=O)CC(CC(=O)N[C@@H]3C[C@@H]3F)C2=O)c(C)c1 (stereo partly shown) [Compound B81] | 80 | 70 | 90 | 0 | 80 | 90 | 90 | 90
Cc1cc(C)c(C2C(=O)CC(CC(=O)NCC3(C)CC3(Cl)Cl)C2=O)c(C)c1 (stereo not shown) [Compound B82] | 70 | 70 | 60 | 40 | 50 | 90 | 70 | 80
Cc1cc(-c2ncc(C#N)cc2Cl)cc(C)c1C1C(=O)CC(CC(=O)NC(C)(C)C)C1=O (stereo not shown) [Compound B83] | 70 | 80 | 80 | 30 | 90 | 90 | 80 | 80
Cc1cc(-c2ncccc2F)cc(C)c1C1C(=O)CC(CC(=O)NC(C)(C)C)C1=O (stereo not shown) [Compound B84] | 100 | 90 | 100 | 80 | 100 | 100 | 100 | 100
Cc1cc(-c2ncc(C#N)cc2F)cc(C)c1C1C(=O)CC(CC(=O)NC(C)(C)C)C1=O (stereo not shown) [Compound B85] | 70 | 70 | 50 | 10 | 100 | 20 | 80 | 70
